Drawing on BindingDB's records for doi:10.7270/Q2QJ7FRJ (Nmmlsc, 2009), this text covers EC50 for 13 molecules.

The test concerns the target Cell division control protein 42 homolog (Homo sapiens, UniProt P60953). Put plainly: inhibition of fluorescent GTP binding to wildtype Cdc42 – biochemical, pyrazoline analogs, multiplex bead flow cytometry, Ki, SAR follow-up (AID 2019). A general note: A flow cytometer gives signals particle by particle.
[1] abbreviates: inactive by the depositor's call.

Sequence of Cell division control protein 42 homolog (P60953 whole entry): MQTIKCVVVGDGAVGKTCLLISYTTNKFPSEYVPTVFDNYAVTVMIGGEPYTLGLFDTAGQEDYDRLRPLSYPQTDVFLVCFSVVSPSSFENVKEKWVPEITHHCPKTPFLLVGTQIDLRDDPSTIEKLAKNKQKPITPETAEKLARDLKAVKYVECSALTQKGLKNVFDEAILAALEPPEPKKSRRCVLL

With `COc1ccc(C2CC(c3ccc(Cl)cc3)=NN2c2ccc(S(N)(=O)=O)cc2)cc1` (stereo not drawn), the EC50 stood at 2.3 µM. Under setting [1], `COc1ccc(C2=NN(c3ccccc3)C(c3ccc(Cl)cc3)C2)cc1` (stereo not drawn) [UNM-0000305833] yielded an EC50 of 30 µM. `COc1ccc(C2CC(c3cccc(OC)c3)=NN2c2ccc(S(N)(=O)=O)cc2)cc1` (stereo not drawn) [4-[5-(3-methoxyphenyl)-3-(4-methoxyphenyl)-3,4-dihydropyrazol-2-yl]benzenesulfonamide] came in with an EC50 of 1.46 µM. The same measure, in the same setting: then `COc1ccc(C2CC(c3ccccc3Cl)=NN2c2ccc(S(N)(=O)=O)cc2)cc1` (stereo not drawn) [4-[5-(2-chlorophenyl)-3-(4-methoxyphenyl)-3,4-dihydropyrazol-2-yl]benzenesulfonamide], with 2.59 µM; and `O=S(=O)(O)c1ccc(N2N=C(c3ccccc3)CC2c2ccccc2)cc1` (stereo not drawn) [UNM-0000305834], with 30 µM.

As for `Cc1ccccc1N1N=C(c2ccccc2)CC1c1ccc(N(C)C)cc1` (stereo not drawn) [N,N-dimethyl-4-[2-(2-methylphenyl)-5-phenyl-3,4-dihydropyrazol-3-yl]aniline], the EC50 under setting [1] is 30 µM.

Under setting [1], `O=[N+]([O-])c1cccc(C2C[C-](c3ccccc3)N=[N+]2c2ccccc2)c1` (stereo not drawn) [UNM-0000305857] showed an EC50 of 30 µM.

Regarding `O=[N+]([O-])c1ccc([N+]2=N[C-](c3ccccc3)CC2c2ccccc2)cc1` (stereo not drawn), under setting [1], the midpoint of the response, the EC50, lay at 30 µM. The same measure, in the same setting: then `COc1ccc(C2=NN(c3cccc(F)c3)C(c3ccc(OC)cc3)C2)cc1` (stereo not drawn) [2-(3-fluorophenyl)-3,5-bis(4-methoxyphenyl)-3,4-dihydropyrazole], with 30 µM; and `COc1ccc(C2=NN(c3ccccc3)C(c3ccccc3C(F)(F)F)C2)cc1` (stereo not drawn), with 34.4 µM; and `COc1ccc(C2CC(c3ccc(Cl)cc3)=NN2c2ccccc2)cc1OC` (stereo not drawn) [UNM-0000305858], with 30 µM.

Consider `COc1ccc(C2CC(c3ccccc3)=NN2c2ccc(C(N)=O)cc2)cc1` (stereo not drawn) [UNM-0000305870], for which the response under setting [1] was half-maximal at 30 µM (EC50). `COc1ccc(C2CC(c3cccc(F)c3)=NN2c2ccc(S(N)(=O)=O)cc2)cc1` (stereo not drawn) [4-[5-(3-fluorophenyl)-3-(4-methoxyphenyl)-3,4-dihydropyrazol-2-yl]benzenesulfonamide] gave an EC50 of 2.86 µM.

The EC50 is the midpoint of the concentration-response curve. A low value points to greater potency.
